Measured values published in ChEMBL document CHEMBL3774368, “1,2,4-Triazolyl octahydropyrrolo[2,3-b]pyrroles: A new series of potent and selective dopamine D3 receptor antagonists” (Bioorg Med Chem, 2016).
The source made the active and inactive calls. The calls are words filed in the database; no cut-off is given here.

Experiments:
[1] = Solubility of compound; format: physicochemical
[2] = target: Voltage-gated inwardly rectifying potassium channel KCNH2 (Homo sapiens, UniProt Q12809); assay: Inhibition of human ERG tail current expressed in HEK293 cells after 5 mins by patch clamp assay
Chain of Voltage-gated inwardly rectifying potassium channel KCNH2 (Q12809 whole entry): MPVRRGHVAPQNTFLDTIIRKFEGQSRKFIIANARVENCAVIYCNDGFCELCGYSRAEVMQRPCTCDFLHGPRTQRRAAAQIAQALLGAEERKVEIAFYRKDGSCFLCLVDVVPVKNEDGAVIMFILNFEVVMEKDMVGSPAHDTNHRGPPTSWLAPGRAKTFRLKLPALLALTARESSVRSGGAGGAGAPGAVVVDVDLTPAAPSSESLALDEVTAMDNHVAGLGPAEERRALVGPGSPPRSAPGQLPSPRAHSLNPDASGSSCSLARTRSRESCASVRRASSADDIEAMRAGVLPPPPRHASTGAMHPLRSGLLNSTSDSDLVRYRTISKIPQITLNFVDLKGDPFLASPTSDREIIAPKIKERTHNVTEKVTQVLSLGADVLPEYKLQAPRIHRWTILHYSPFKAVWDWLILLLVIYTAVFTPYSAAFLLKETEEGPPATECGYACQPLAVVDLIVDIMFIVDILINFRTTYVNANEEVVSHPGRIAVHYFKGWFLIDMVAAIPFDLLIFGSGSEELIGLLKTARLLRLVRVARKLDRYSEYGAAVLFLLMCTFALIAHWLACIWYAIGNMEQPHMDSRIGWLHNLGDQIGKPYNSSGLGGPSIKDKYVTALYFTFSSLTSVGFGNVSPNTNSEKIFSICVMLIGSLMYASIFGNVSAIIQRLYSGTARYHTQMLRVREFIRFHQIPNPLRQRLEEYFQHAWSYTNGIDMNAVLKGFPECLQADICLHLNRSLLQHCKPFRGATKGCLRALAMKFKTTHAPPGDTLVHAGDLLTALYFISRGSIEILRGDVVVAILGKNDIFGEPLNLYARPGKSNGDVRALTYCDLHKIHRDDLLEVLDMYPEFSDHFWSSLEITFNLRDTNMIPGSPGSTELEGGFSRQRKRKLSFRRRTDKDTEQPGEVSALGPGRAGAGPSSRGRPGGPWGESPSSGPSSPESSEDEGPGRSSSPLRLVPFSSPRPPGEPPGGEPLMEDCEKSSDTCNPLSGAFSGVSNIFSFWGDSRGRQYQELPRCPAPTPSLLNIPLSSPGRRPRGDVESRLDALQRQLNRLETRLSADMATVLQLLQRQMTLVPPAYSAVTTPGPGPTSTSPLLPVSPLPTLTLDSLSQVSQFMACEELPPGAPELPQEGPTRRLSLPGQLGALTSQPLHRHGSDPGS

[3] = target: D(2) dopamine receptor (Homo sapiens, UniProt P14416); assay: Displacement of [3H]-spiperone from human dopamine D2 receptor expressed in CHO-K1 cell membranes after 120 mins by liquid scintillation counter method
Chain of D(2) dopamine receptor (P14416 whole entry): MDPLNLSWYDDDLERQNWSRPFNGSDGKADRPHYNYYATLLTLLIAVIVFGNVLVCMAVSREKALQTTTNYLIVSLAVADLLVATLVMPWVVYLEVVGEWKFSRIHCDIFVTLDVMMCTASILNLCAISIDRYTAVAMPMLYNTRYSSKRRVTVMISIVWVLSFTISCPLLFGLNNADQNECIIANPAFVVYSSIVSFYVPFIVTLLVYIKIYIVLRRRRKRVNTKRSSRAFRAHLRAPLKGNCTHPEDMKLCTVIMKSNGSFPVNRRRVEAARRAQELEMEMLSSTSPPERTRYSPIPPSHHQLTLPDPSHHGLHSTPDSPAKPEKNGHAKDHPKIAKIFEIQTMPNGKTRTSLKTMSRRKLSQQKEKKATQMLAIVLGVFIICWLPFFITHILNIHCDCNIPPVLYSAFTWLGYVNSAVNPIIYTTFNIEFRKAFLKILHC

[4] = target: D(3) dopamine receptor (Homo sapiens, UniProt P35462); assay: Displacement of [3H]-spiperone from human dopamine D3 receptor expressed in CHO-K1 cell membranes after 90 mins by liquid scintillation counter method
Chain of D(3) dopamine receptor (P35462 whole entry): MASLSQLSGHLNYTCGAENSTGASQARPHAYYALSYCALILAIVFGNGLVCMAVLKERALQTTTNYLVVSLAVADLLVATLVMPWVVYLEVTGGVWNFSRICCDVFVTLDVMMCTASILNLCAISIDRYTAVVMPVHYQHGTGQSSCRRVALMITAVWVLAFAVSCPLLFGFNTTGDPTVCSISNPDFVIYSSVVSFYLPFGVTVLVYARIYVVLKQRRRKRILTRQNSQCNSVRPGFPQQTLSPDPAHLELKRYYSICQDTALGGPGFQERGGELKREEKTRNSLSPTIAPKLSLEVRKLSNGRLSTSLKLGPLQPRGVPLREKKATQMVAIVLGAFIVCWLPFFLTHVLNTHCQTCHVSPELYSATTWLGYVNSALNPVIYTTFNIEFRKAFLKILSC

[5] = species on record: Homo sapiens; assay: Selectivity ratio of IC50 for human ERG to Ki for human dopamine D3 receptor
[6] = target: D(1A) dopamine receptor (Homo sapiens) (UniProt P21728); assay: Binding affinity to dopamine D1 receptor (unknown origin)
Chain of D(1A) dopamine receptor (Homo sapiens) (P21728 whole entry): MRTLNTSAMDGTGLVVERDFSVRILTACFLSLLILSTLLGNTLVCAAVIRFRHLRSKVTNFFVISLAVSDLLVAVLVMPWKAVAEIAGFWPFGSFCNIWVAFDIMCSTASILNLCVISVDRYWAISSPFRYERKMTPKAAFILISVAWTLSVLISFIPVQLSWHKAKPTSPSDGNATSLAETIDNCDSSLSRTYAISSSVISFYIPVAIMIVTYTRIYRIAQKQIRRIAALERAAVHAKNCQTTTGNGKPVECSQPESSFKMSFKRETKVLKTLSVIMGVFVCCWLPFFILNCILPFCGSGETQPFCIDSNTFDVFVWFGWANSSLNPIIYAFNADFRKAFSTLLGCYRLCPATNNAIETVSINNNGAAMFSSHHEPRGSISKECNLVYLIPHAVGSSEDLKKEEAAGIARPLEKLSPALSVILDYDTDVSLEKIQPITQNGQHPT

**Q.** For `Cc1ncoc1-c1nnc(SCCCN2CC3CCN(c4ccc(C(F)(F)F)cc4)C3C2)n1C.Cl` (stereo unspecified), which solubility [1] is on record?
**A.** Its solubility is 300 µg/mL.

**Q.** For `Cc1ncoc1-c1nnc(SCCCN2CC3CCN(c4ccccc4)C3C2)n1C.Cl` (stereo unspecified), which solubility [1] is on record?
**A.** Its solubility is greater than 2000 µg/mL.

**Q.** Which results are given for `Cn1c(SCCCN2CC3CCN(c4ccc(C(F)(F)F)cc4)C3C2)nnc1-c1cc[nH]c(=O)c1` (racemic) [listing 1 of 2 here]?
**A.** IC50 [2]: 1260 nM; Ki [3]: 631 nM; Ki [4]: 7.94 nM

**Q.** With `Cc1ncoc1-c1nnc(SCCCN2CC3CN(c4ccc(C(F)(F)F)cc4)C3C2)n1C` (racemic) as the compound, how does the IC50 [2] read?
**A.** Its IC50 is 631 nM.

**Q.** What about the Ki [4] of the same compound?
**A.** The Ki was 39.8 nM.

**Q.** Which results are given for `Cc1ncoc1-c1nnc(SCCCN2CC3CCN(c4cccc(F)c4)C3C2)n1C` (racemic)?
**A.** Selectivity ratio [5]: 100; IC50 [2]: 251 nM; Ki [3]: 158 nM; Ki [4]: 3.16 nM

**Q.** Which results are given for `Cc1ncoc1-c1nnc(SCCCN2CC3CCN(c4ccc(C(F)(F)F)cc4F)C3C2)n1C` (racemic)?
**A.** IC50 [2]: 15800 nM; Ki [3]: 100 nM; Ki [4]: 2 nM

**Q.** With `Cc1ncoc1-c1nnc(SCCCN2CC3CCN(c4ccc(Cl)cc4Cl)C3C2)n1C` (racemic) as the compound, how does the IC50 [2] read?
**A.** Its IC50 is 1260 nM.

**Q.** And the Ki [3]?
**A.** Its Ki is 501 nM.

**Q.** What about the Ki [4] of the same compound?
**A.** The Ki was 5.01 nM.

**Q.** For `Cc1ncoc1-c1nnc(SCCCN2CC3CCN(c4cc(Cl)cc(Cl)c4)C3C2)n1C` (racemic), which IC50 [2] is on record?
**A.** The IC50 was less than 100 nM.

**Q.** What about the Ki [3] of the same compound?
**A.** The Ki was 10 nM.

**Q.** What about the Ki [4] of the same compound?
**A.** Its Ki is 0.398 nM.

**Q.** Which IC50 [2] does the source give for `Cn1c(SCCCN2CC3CCN(c4ccc(C(F)(F)F)cc4)C3C2)nnc1-c1ccc(=O)[nH]c1` (racemic) here?
**A.** The IC50 was 1000 nM.

**Q.** And the Ki [3]?
**A.** The Ki was 398 nM.

**Q.** And the Ki [4]?
**A.** Its Ki is 3.98 nM.

**Q.** Which Selectivity ratio [5] does the source give for `Cn1c(SCCCN2CC3CCN(c4ccc(C(F)(F)F)cc4)C3C2)nnc1-c1cc[nH]c(=O)c1` (racemic) [listing 2 of 2 here] here?
**A.** The Selectivity ratio was greater than 100.

**Q.** For `Cc1ncoc1-c1nnc(SCCCN2CC3CCN(c4ccccc4)C3C2)n1C` (stereo in doubt; 6a), which IC50 [2] is on record?
**A.** The IC50 was 1580 nM.

**Q.** What about the Ki [3] of the same compound?
**A.** Its Ki is 398 nM.

**Q.** With `Cc1ncoc1-c1nnc(SCCCN2CC3CCN(c4ccccc4)C3C2)n1C` (stereo in doubt; 6b) as the compound, how does the Activity [6] read?
**A.** Its Activity is “inactive”.

**Q.** With `Cc1ncoc1-c1nnc(SCCCN2CC3CCN(c4ccc(C(F)(F)F)cc4F)C3C2)n1C` (stereo in doubt; 8a) as the compound, how does the IC50 [2] read?
**A.** Its IC50 is 200 nM.

**Q.** What about the Ki [3] of the same compound?
**A.** The Ki was 1580 nM.

**Q.** What about the Ki [4] of the same compound?
**A.** The Ki was 5.01 nM.

**Q.** With `Cc1ncoc1-c1nnc(SCCCN2CC3CCN(c4ccc(C(F)(F)F)cc4F)C3C2)n1C` (stereo in doubt; 8b) as the compound, how does the Activity [6] read?
**A.** Its Activity is “inactive”.
